Our source for the SC100 values is patent publication US10774064B2 (Cadent Therapeutics, Inc., priority 2016, dated 2020).

This test deals with T1, small-conductance Ca2+-activated K+ channels (SK channels, subtype 2) (Homo sapiens, UniProt Q9H2S1).
T1 construct: expressed in transfected cells; host or cells: HEK293
Briefly: whole-cell patch-clamp of ionic current through SK2 channels in HEK293 cells (SC100). The test is classed as cell-based. The settings on record: concentration that increases the basal current by 100%; HEK293 cells expressing SK2 channels. In outline:
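Whole-cell patch-clamp recording of current in HEK293 cells expressing SK2 channels. SC100 is the compound concentration that increases basal current by 100%.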
Background: The patch-clamp technique gives a direct electrical read-out from membranes.
Take `CN(C)C(=O)C1CC1c1cc(NC2CCC(F)(F)CC2)nc(-n2ccc(CF)n2)n1` (centres unmarked) [Compound 308, 2-(6-((4,4-difluorocyclohexyl)amino)-2-(3-(fluoromethyl)-1H-pyrazol-1-yl)pyrimidin-4-yl)-N,N-dimethylcyclopropane-1-carboxamide]: the SC100 entry was “+ (+ means >1 uM)”. The value for `Cc1cn(-c2nc(NC3CCC(F)(F)CC3)cc(OC3CN(C(=O)C(C)(C)C)C3)n2)nc1CF` [Compound 309, 1-(3-((6-((4,4-difluorocyclohexyl)amino)-2-(3-(fluoromethyl)-4-methyl-1H-pyrazol-1-yl)pyrimidin-4-yl)oxy)azetidin-1-yl)-2,2-dimethylpropan-1-one] was “++ (++ means 200 nM-1000 nM)”; that for `COC(=O)N1CC(Oc2cc(NC3CCC(F)(F)CC3)nc(-n3cc(C)c(CF)n3)n2)C1` [Compound 310, methyl 3-((6-((4,4-difluorocyclohexyl)amino)-2-(3-(fluoromethyl)-4-methyl-1H-pyrazol-1-yl)pyrimidin-4-yl)oxy)azetidine-1-carboxylate] was “++ (++ means 200 nM-1000 nM)”. Consider `CC(=O)NCc1cc(NC2CCC(F)(F)CC2)nc(-n2ccc(CF)n2)c1` [Compound 312, N-((2-((4,4-difluorocyclohexyl)amino)-6-(3-(fluoromethyl)-1H-pyrazol-1-yl)pyridin-4-yl)methyl)acetamide], for which the SC100 result is “++ (++ means 200 nM-1000 nM)”. `COC(=O)N1CCC1COc1cc(NC2CCC(F)(F)CC2)nc(-n2ccc(C(F)F)n2)n1` (centres unmarked) [Compound 314, methyl 2-(((6-((4,4-difluorocyclohexyl)amino)-2-(3-(difluoromethyl)-1H-pyrazol-1-yl)pyrimidin-4-yl)oxy)methyl)azetidine-1-carboxylate]: the SC100 result was “+ (+ means >1 uM)”. Turning to `CC(O)c1ccn(-c2nc(NC3CCC(F)(F)CC3)cc(OC3CN(C(=O)C(C)(C)C)C3)n2)n1` (centres unmarked) [Compound 315, 1-(3-((6-((4,4-difluorocyclohexyl)amino)-2-(3-(1-hydroxyethyl)-1H-pyrazol-1-yl)pyrimidin-4-yl)oxy)azetidin-1-yl)-2,2-dimethylpropan-1-one], the SC100 result was “+ (+ means >1 uM)”. The entry for `CC(C)(C)C(=O)N1CC(Oc2cc(NC3CCC(F)(F)CC3)nc(-c3nc(CF)cs3)n2)C1` [Compound 316, 1-(3-((6-((4,4-difluorocyclohexyl)amino)-2-(4-(fluoromethyl)thiazol-2-yl)pyrimidin-4-yl)oxy)azetidin-1-yl)-2,2-dimethylpropan-1-one] is “+++ (+++ means <200 nM)”; for `Cc1cn(-c2nc(NC3CCC(F)(F)CC3)cc(OC3CN(C(=O)C(C)(C)C)C3)n2)nc1C(F)F` [Compound 317, 1-(3-((6-((4,4-difluorocyclohexyl)amino)-2-(3-(difluoromethyl)-4-methyl-1H-pyrazol-1-yl)pyrimidin-4-yl)oxy)azetidin-1-yl)-2,2-dimethylpropan-1-one] it is “+++ (+++ means <200 nM)”; for `COC(=O)N1CC(Oc2cc(NC3CCC(F)(F)CC3)nc(-n3cc(C)c(C(F)F)n3)n2)C1` [Compound 318, methyl 3-((6-((4,4-difluorocyclohexyl)amino)-2-(3-(difluoromethyl)-4-methyl-1H-pyrazol-1-yl)pyrimidin-4-yl)oxy)azetidine-1-carboxylate] it is “++ (++ means 200 nM-1000 nM)”.

For the compound `O=C(N1CC(Oc2cc(NC3CCC(F)(F)CC3)nc(-n3ccc(CO)n3)n2)C1)C(F)(F)F` [Compound 319, 1-(3-((6-((4,4-difluorocyclohexyl)amino)-2-(3-(hydroxymethyl)-1H-pyrazol-1-yl)pyrimidin-4-yl)oxy)azetidin-1-yl)-2,2,2-trifluoroethan-1-one], the SC100 entry is given as “+ (+ means >1 uM)”.

For `Cc1csc(-c2nc(NC3CCC(F)(F)CC3)cc(N3CCOCC3)n2)n1` [Compound 320, N-(4,4-difluorocyclohexyl)-2-(4-methylthiazol-2-yl)-6-morpholinopyrimidin-4-amine], the SC100 result is listed as “++ (++ means 200 nM-1000 nM)”.

Regarding `O=C1CCCN1Cc1cc(NC2CCC(F)(F)CC2)nc(-n2ccc(CF)n2)n1` [Compound 321, 1-((6-((4,4-difluorocyclohexyl)amino)-2-(3-(fluoromethyl)-1H-pyrazol-1-yl)pyrimidin-4-yl)methyl)pyrrolidin-2-one], the SC100 entry was “+ (+ means >1 uM)”. Take `CC(C)(C)C(=O)N1CC(Oc2cc(NC3CCC(F)(F)CC3)nc(-c3nc(C(F)(F)F)cs3)n2)C1` [Compound 322, 1-(3-((6-((4,4-difluorocyclohexyl)amino)-2-(4-(trifluoromethyl)thiazol-2-yl)pyrimidin-4-yl)oxy)azetidin-1-yl)-2,2-dimethylpropan-1-one]: the SC100 result is given as “++ (++ means 200 nM-1000 nM)”. Consider `O=C(N1CC(Oc2cc(NC3CCC(F)(F)CC3)nc(-c3nc(C(F)(F)F)cs3)n2)C1)C(F)(F)F` [Compound 323, 1-(3-((6-((4,4-difluorocyclohexyl)amino)-2-(4-(trifluoromethyl)thiazol-2-yl)pyrimidin-4-yl)oxy)azetidin-1-yl)-2,2,2-trifluoroethan-1-one], for which the SC100 result is reported as “++ (++ means 200 nM-1000 nM)”. `COC(=O)N1CC(Oc2cc(NC3CCC(F)(F)CC3)nc(-c3nc(C(F)(F)F)cs3)n2)C1` [Compound 324, methyl 3-((6-((4,4-difluorocyclohexyl)amino)-2-(4-(trifluoromethyl)thiazol-2-yl)pyrimidin-4-yl)oxy)azetidine-1-carboxylate]: the SC100 result was “++ (++ means 200 nM-1000 nM)”. The entry for `CC(C)C1CC(=O)N1Cc1cc(NC2CCC(F)(F)CC2)nc(-n2ccc(CF)n2)n1` (centres unmarked) [Compound 325, 1-((6-((4,4-difluorocyclohexyl)amino)-2-(3-(fluoromethyl)-1H-pyrazol-1-yl)pyrimidin-4-yl)methyl)-4-isopropylazetidin-2-one] is “+ (+ means >1 uM)”; for `CC1(O)CN(c2cc(NC3CCC(F)(F)CC3)nc(-n3ccc(CF)n3)c2)C1` [Compound 326, 1-(2-((4,4-difluorocyclohexyl)amino)-6-(3-(fluoromethyl)-1H-pyrazol-1-yl)pyridin-4-yl)-3-methylazetidin-3-ol] it is “++ (++ means 200 nM-1000 nM)”; for `CC(=O)NCc1cc(NC2CCC(F)(F)CC2)nc(-n2ccc(CF)n2)n1` [Compound 327, N-((6-((4,4-difluorocyclohexyl)amino)-2-(3-(fluoromethyl)-1H-pyrazol-1-yl)pyrimidin-4-yl)methyl)acetamide] it is “+ (+ means >1 uM)”. The entry for `O=C(NCc1cc(NC2CCC(F)(F)CC2)nc(-n2ccc(CF)n2)n1)C1CCC1` [Compound 328, N-((6-((4,4-difluorocyclohexyl)amino)-2-(3-(fluoromethyl)-1H-pyrazol-1-yl)pyrimidin-4-yl)methyl)cyclobutanecarboxamide] is “+ (+ means >1 uM)”; for `CC(C)(C)C(=O)N1CC(Oc2cc(NC3CCC(F)(F)CC3)nc(-c3nc(C(F)F)cs3)n2)C1` [Compound 329, 1-(3-((6-((4,4-difluorocyclohexyl)amino)-2-(4-(difluoromethyl)thiazol-2-yl)pyrimidin-4-yl)oxy)azetidin-1-yl)-2,2-dimethylpropan-1-one] it is “++ (++ means 200 nM-1000 nM)”. For `COC(=O)N1CC(Oc2cc(NC3CCC(F)(F)CC3)nc(-c3nc(C(F)F)cs3)n2)C1` [Compound 330, methyl 3-((6-((4,4-difluorocyclohexyl)amino)-2-(4-(difluoromethyl)thiazol-2-yl)pyrimidin-4-yl)oxy)azetidine-1-carboxylate], the SC100 result was “++ (++ means 200 nM-1000 nM)”. The entry for `CC1NC(c2cc(NC3CCC(F)(F)CC3)nc(-n3ccc(CF)n3)n2)=NO1` (centres unmarked) [Compound 331, N-(4,4-difluorocyclohexyl)-2-(3-(fluoromethyl)-1H-pyrazol-1-yl)-6-(5-methyl-4,5-dihydro-1,2,4-oxadiazol-3-yl)pyrimidin-4-amine] is “+ (+ means >1 uM)”; for `FC1(F)CCC(Nc2cc(N3CCOCC3)nc(-c3nc(C(F)(F)F)cs3)n2)CC1` [Compound 332, N-(4,4-difluorocyclohexyl)-6-morpholino-2-(4-(trifluoromethyl)thiazol-2-yl)pyrimidin-4-amine] it is “++ (++ means 200 nM-1000 nM)”; for `O=C(NCc1cc(NC2CCC(F)(F)CC2)nc(-n2ccc(CF)n2)n1)C1COC1` [Compound 333, N-((6-((4,4-difluorocyclohexyl)amino)-2-(3-(fluoromethyl)-1H-pyrazol-1-yl)pyrimidin-4-yl)methyl)oxetane-3-carboxamide] it is “+ (+ means >1 uM)”. The value for `Cc1nc(-c2cc(NC3CCC(F)(F)CC3)nc(-n3ccc(CF)n3)n2)no1` [Compound 334, N-(4,4-difluorocyclohexyl)-2-(3-(fluoromethyl)-1H-pyrazol-1-yl)-6-(5-methyl-1,2,4-oxadiazol-3-yl)pyrimidin-4-amine] was “+ (+ means >1 uM)”; that for `COC(=O)N1CC(OCc2cc(NC3CCC(F)(F)CC3)nc(-n3ccc(CF)n3)n2)C1` [Compound 335, methyl 3-((6-((4,4-difluorocyclohexyl)amino)-2-(3-(fluoromethyl)-1H-pyrazol-1-yl)pyrimidin-4-yl)methoxy)azetidine-1-carboxylate] was “++ (++ means 200 nM-1000 nM)”; that for `FCc1csc(-c2nc(NC3CCC(F)(F)CC3)cc(N3CCOCC3)n2)n1` [Compound 336, N-(4,4-difluorocyclohexyl)-2-(4-(fluoromethyl)thiazol-2-yl)-6-morpholinopyrimidin-4-amine] was “++ (++ means 200 nM-1000 nM)”.

As for `CC(O)c1csc(-c2nc(NC3CCC(F)(F)CC3)cc(OC3CN(C(=O)C(C)(C)C)C3)n2)n1` (centres unmarked) [Compound 337], the SC100 entry is “+ (+ means >1 uM)”. In the case of `FCc1ccn(-c2nc(NC3CCC(F)(F)CC3)cc(N3CC4(COC4)C3)n2)n1` [Compound 338, N-(4,4-difluorocyclohexyl)-2-(3-(fluoromethyl)-1H-pyrazol-1-yl)-6-(2-oxa-6-azaspiro[3.3]heptan-6-yl)pyrimidin-4-amine], the SC100 entry is listed as “++ (++ means 200 nM-1000 nM)”.
